Consider four molecules from US11780832B2, “Lactivicin compounds, their preparation and use as antibacterial agents” (priority 2021, dated 2023).

As usually defined, the MIC is the least concentration at which growth counts as inhibited.

Common to all, as to format: cell-based
Test [1] deals with Enterobacter cloacae species complex Elevated AmpC. In words: MIC against Elevated AmpC producing strains, compound alone. The method, then: (§1) Gram-negative and Gram-positive bacterial strains used during the in vitro minimum inhibitory concentration (MIC) determination were obtained either from the American Type Culture Collection (ATCC) or from clinical specimens. All strains were characterized genotypically and the respective antibiotic resistance markers for each strain were identified.
(§2) Isolates were sub-cultured onto appropriate media and stocked in skim milk at −80° C. Following two subcultures from frozen stock, in vitro antimicrobial susceptibility testing was performed using the Clinical and Laboratory Standards Institute (CLSI) broth microdilution method. Briefly, fresh cultures were suspended in culture media to give a final stock inoculum size of 5×10^7 colony forming units per milliliter of broth (CFU/mL). Test compounds were prepared at a stock solution concentration equal to 128 μg/mL, then diluted to give a final an initial working concentration of 32 μg/mL. 100 μL of the stock solutions were added to the first wells in a 96-well plate and were then diluted using a 2-fold dilution method to give a range of 32-0.025 μg/mL. 100 μL of the bacterial suspensions were then added to the 96-well plates to give a final working inoculum size of 5×10^5 CFU/mL. The final compound concentration range was 16-0.0125 μg/mL. […] MICs for comparator agents were determined using custom-designed, in-house prepared 96-well broth microdilution panels.

Test [2] relates to Citrobacter freundii species complex Elevated AmpC. The test is described as above. The conditions noted are these: row r16. The protocol: as §1, §2
The subject of test [3] is Escherichia coli Elevated AmpC. The test is described as above. The method, then: as §1, §2
The test system of test [4] is Citrobacter freundii species complex OXA-181. In words: MIC, CLSI broth microdilution. An outline of the steps: (§3)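 Genotyped isolates from ATCC or clinical sources were subcultured twice from −80 °C skim-milk stocks, then tested by CLSI broth microdilution. Compounds were serially diluted 2-fold to a final 16-0.0125 μg/mL, with a final inoculum of 5×10^5 CFU/mL.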
On the technique in general: Dilution methods test growth across graded concentrations, often in twofold steps.

Test [5] deals with Klebsiella pneumoniae KPC-3. The test is described as follows: MIC, CLSI broth microdilution. An outline of the steps: as §3
Test [6] deals with Escherichia coli Empty pSMART plasmid. In words: MIC, CLSI broth microdilution. Put shortly:
as §3

Test [7] deals with Klebsiella oxytoca KPC-2, TEM-1. In words: MIC, CLSI broth microdilution. An outline of the steps: as §3
Test [8] has as its system Escherichia coli Isogenic TEM-10. The test is described as follows: MIC, CLSI broth microdilution. Put shortly: (§4)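 Each strain carries identified resistance markers and was drawn from ATCC or clinical specimens. Susceptibility is tested per CLSI broth microdilution at a final inoculum of 5×10^5 CFU/mL, over a final compound range of 16-0.0125 μg/mL.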
The test system of test [9] is Escherichia coli Isogenic TEM-26. The test is described as follows: MIC, CLSI broth microdilution. An outline of the steps: as §4
The mark [10] stands for this setting: Citrobacter freundii species complex, OXA-181, read-out: MIC.

In brackets after ≈: the same amount, converted by molar mass. Like-named read-outs stand apart in the source and are kept apart here.

Take `Nc1nc(/C(=N/OC2(C(=O)O)CCC(F)(F)CC2)C(=O)N[C@H]2CON(C3(C(=O)O)C[C@H](N4C(=O)c5cc(O)c(O)cc5C4=O)C(=O)O3)C2=O)cs1` (stereo partly drawn) [Cmpd 10, (4S)-2-[(4S)-4-{[(2Z)-2-(2-amino-1,3-thiazol-4-yl)-2-{[(1-carboxy-4,4-difluorocyclohexyl)oxy]imino}acetyl]amino}-3-oxo-1,2-oxazolidin-2-yl]-4-(5,6-dihydroxy-1,3-dioxo-1,3-dihydro-2H-isoindol-2-yl)-5-oxooxolane-2-carboxylic acid]: the MIC in test [1] was found to be 0.5 µg/mL (≈ 0.677 µM); in test [1] (strain of row r7), 4 µg/mL (≈ 5.42 µM); in [1] (strain of row r20), 0.12 µg/mL (≈ 0.162 µM); in [2], 0.25 µg/mL (≈ 0.338 µM); in test [3] (strain of row r10) it was 0.015 µg/mL (≈ 0.0203 µM); in [3] (strain of row r11), 0.12 µg/mL (≈ 0.162 µM). Moreover, the MIC in test [3] (strain of row r12) was 0.12 µg/mL (≈ 0.162 µM); in test [3] (strain of row r13), 0.03 µg/mL (≈ 0.0406 µM); in [3] (strain of row r14), 0.03 µg/mL (≈ 0.0406 µM); in test [3] (strain of row r15), 0.25 µg/mL (≈ 0.338 µM); in test [4] (setting [10]), ≤ 0.015 µg/mL; in test [5] (KPC3, KPC-3, read-out: MIC) it was 0.06 µg/mL (≈ 0.0812 µM). The MIC was ≤ 0.015 µg/mL in test [6] and ≤ 0.015 µg/mL in test [7] (KPC-2, TEM-1, read-out: MIC).
Regarding `Nc1nc(/C(=N/OC2(C(=O)O)CCOCC2)C(=O)N[C@H]2CON(C3(C(=O)O)C[C@H](N4C(=O)c5cc(O)c(O)cc5C4=O)C(=O)O3)C2=O)cs1` (stereo partly drawn) [Cmpd 8, 4-({(Z)-[1-(2-amino-1,3-thiazol-4-yl)-2-({(4S)-2-[(4S)-2-carboxy-4-(5,6-dihydroxy-1,3-dioxo-1,3-dihydro-2H-isoindol-2-yl)-5-oxooxolan-2-yl]-3-oxo-1,2-oxazolidin-4-yl}amino)-2-oxoethylidene]amino}oxy)oxane-4-carboxylic acid], the minimum inhibitory concentration (MIC) in [1] was 0.5 µg/mL (≈ 0.71 µM); in [1] (strain of row r7) it was 2 µg/mL (≈ 2.84 µM); in test [1] (strain of row r20), 0.12 µg/mL (≈ 0.17 µM); in test [2], 0.25 µg/mL (≈ 0.355 µM); in [3] (strain of row r10), 0.015 µg/mL (≈ 0.0213 µM); in [3] (strain of row r11), 0.12 µg/mL (≈ 0.17 µM). The minimal inhibitory concentration (MIC) is 0.25 µg/mL (≈ 0.355 µM) in [3] (strain of row r12); 0.03 µg/mL (≈ 0.0426 µM) in test [3] (strain of row r13); 0.06 µg/mL (≈ 0.0852 µM) in test [3] (strain of row r14); 0.12 µg/mL (≈ 0.17 µM) in test [3] (strain of row r15); 0.0149 µg/mL (≈ 0.0211 µM) in [8]; 0.0149 µg/mL (≈ 0.0211 µM) in test [4] (Citrobacter freundii). The minimal inhibitory concentration (MIC) in [5] (KPC3), in test [9] and in test [7] was 0.0149 µg/mL (≈ 0.0211 µM) in each case.
On to `Nc1nc(/C(=N/OC2(C(=O)O)CC2)C(=O)N[C@H]2CON(C3(C(=O)O)C[C@H](N4Cc5cc(O)c(O)cc5C4=O)C(=O)O3)C2=O)cs1` (stereo partly drawn) [Cmpd 28, (4S)-2-[(4S)-4-{[(2Z)-2-(2-amino-1,3-thiazol-4-yl)-2-{[(1-carboxycyclopropyl)oxy]imino}acetyl]amino}-3-oxo-1,2-oxazolidin-2-yl]-4-(5,6-dihydroxy-1-oxo-1,3-dihydro-2H-isoindol-2-yl)-5-oxooxolane-2-carboxylic acid], for which the minimum inhibitory concentration (MIC) in [1] was 2 µg/mL (≈ 3.09 µM); in [1] (strain of row r7) it was 8 µg/mL (≈ 12.4 µM); in test [1] (strain of row r20), 1 µg/mL (≈ 1.55 µM); in test [2], 1 µg/mL (≈ 1.55 µM); in [3] (strain of row r10), 0.06 µg/mL (≈ 0.0928 µM); in test [3] (strain of row r11), 0.5 µg/mL (≈ 0.773 µM). The minimum inhibitory concentration (MIC) in [3] (strain of row r12) worked out at 1 µg/mL (≈ 1.55 µM); in test [3] (strain of row r13), 0.25 µg/mL (≈ 0.387 µM); in [3] (strain of row r14), 0.12 µg/mL (≈ 0.186 µM); in test [3] (strain of row r15) it was 1 µg/mL (≈ 1.55 µM); in [8], 0.03 µg/mL (≈ 0.0464 µM); in [4] (setting [10]), 0.12 µg/mL (≈ 0.186 µM). Moreover, the minimum inhibitory concentration (MIC) worked out at 0.25 µg/mL (≈ 0.387 µM) in test [5] (KPC3, KPC-3, read-out: MIC); 0.03 µg/mL (≈ 0.0464 µM) in test [9]; 0.0149 µg/mL (≈ 0.023 µM) in test [7] (KPC-2, TEM-1, read-out: MIC).
Turning to `CC(C)(O/N=C(\C(=O)N[C@@H]1C(=O)N2C(C(=O)[O-])=C(C[n+]3ccccc3)CS[C@H]12)c1csc(N)n1)C(=O)O` [Ceftazidime, ceftazidime, reference compound], the minimal inhibitory concentration (MIC) in test [1] is 16 µg/mL (≈ 29.3 µM); in test [1] (strain of row r7), > 32 µg/mL; in test [1] (strain of row r20) it was 16 µg/mL (≈ 29.3 µM); in test [2], > 32 µg/mL; in test [3] (strain of row r10), 8 µg/mL (≈ 14.6 µM); in test [3] (strain of row r11), 8 µg/mL (≈ 14.6 µM). Moreover, the MIC in test [3] (strain of row r12) was 8 µg/mL (≈ 14.6 µM); in test [3] (strain of row r13), 4 µg/mL (≈ 7.32 µM); in test [3] (strain of row r14) it was 16 µg/mL (≈ 29.3 µM); in test [3] (strain of row r15), 16 µg/mL (≈ 29.3 µM); in [8] it was > 32 µg/mL; in [4] (setting [10]), 8 µg/mL (≈ 14.6 µM). Besides, the MIC in [5] (KPC3, KPC-3, read-out: MIC) is > 32 µg/mL; in test [9] it was > 32 µg/mL; in test [6] it was 0.25 µg/mL (≈ 0.457 µM); in [7] (KPC-2, TEM-1, read-out: MIC) it was 1 µg/mL (≈ 1.83 µM).
